Assay results reported in patent US20130156825A1, “Modafinil Formulations” (CEPHALON, INC., priority 2002, published 2013).

Columns and labels:
[1] = PSD of modafinil used to prepare the modafinil tablets; assay type: physicochemical; details: modafinil used for 200 mg tablets, method not stated
Experimental: Tablets containing 200 mg of modafinil having PSD as provided in table 2 below (values are in microns) were prepared: […]

[2] = PSD of modafinil particles, Malvern laser technique; assay type: physicochemical
Experimental: (§1) Modafinil PSD was measured in '517 U.S. patent by using a Hiac/Royco machine. This machine uses a light obscuration technique for the PSD measurement. We repeated the measurements of the PSD on a Hiac/Royco machine and compared it with a different laser beam obscuration technique offered by the commonly used Malvern machine. Both methods use light obscuration as means to evaluate the PSD, but they work on different principles. The results confirmed the validity of our PSD measurements. Both methods gave similar values. Both methods also gave PSD results that are far away from the scope of the values claimed by the '517 U.S. Patent. The following table summarizes the data. Values are reported in microns. The term D(v,0.5) denotes the diameter of the largest particle found in 50% of the particles sorted in increasing order. The other two terms refer to 85% and 95% of the particles. The terms mean, median and mode are used in their regular statistical meaning.

[3] = PSD of modafinil particles, Hiac/Royco light obscuration; assay type: physicochemical; details: Hiac
Experimental: as §1

[4] = '517 U.S. Patent; cited from earlier work

NC(=O)C[S+]([O-])C(c1ccccc1)c1ccccc1 (centres unmarked) [Batch A, 2-[(diphenylmethyl)sulfinyl]acetamide]
D(v, 0.5) ([1]; listed as A): 107 microns | D(v, 0.85) ([1]; listed as A): 235 microns | D(v, 0.95) ([1]; listed as A): 318 microns | Median ([1]; listed as A): 107 microns | D(v, 0.5) ([2]; listed as A): 107 microns | D(v, 0.85) ([2]; listed as A): 235 microns | D(v, 0.95) ([2]; listed as A): 318 microns | Median particle size ([2]; listed as A): 107 microns | D(v, 0.5) ([3]; listed as A): 133 microns | D(v, 0.85) ([3]; listed as A): 229 microns | D(v, 0.95) ([3]; listed as A): 282 microns | Mean particle size ([3]; listed as A): 51 microns | Median particle size ([3]; listed as A): 134 microns | mode particle size ([3]; listed as A): 196 microns

NC(=O)C[S+]([O-])C(c1ccccc1)c1ccccc1 (centres unmarked) [Batch B, 2-[(diphenylmethyl)sulfinyl]acetamide]
D(v, 0.5) ([1]; listed as B): 85 microns | D(v, 0.85) ([1]; listed as B): 215 microns | D(v, 0.95) ([1]; listed as B): 293 microns | Median ([1]; listed as B): 85 microns | D(v, 0.5) ([2]; listed as B): 85 microns | D(v, 0.85) ([2]; listed as B): 215 microns | D(v, 0.95) ([2]; listed as B): 293 microns | Median particle size ([2]; listed as B): 85 microns | D(v, 0.5) ([3]; listed as B): 103 microns | D(v, 0.85) ([3]; listed as B): 194 microns | D(v, 0.95) ([3]; listed as B): 265 microns | Mean particle size ([3]; listed as B): 40 microns | Median particle size ([3]; listed as B): 104 microns | mode particle size ([3]; listed as B): 148 microns

NC(=O)C[S+]([O-])C(c1ccccc1)c1ccccc1 (centres unmarked) [Batch C, 2-[(diphenylmethyl)sulfinyl]acetamide]
D(v, 0.5) ([1]; listed as C): 128 microns | D(v, 0.85) ([1]; listed as C): 228 microns | D(v, 0.95) ([1]; listed as C): 303 microns | Median ([1]; listed as C): 128 microns | D(v, 0.5) ([2]; listed as C): 128 microns | D(v, 0.85) ([2]; listed as C): 228 microns | D(v, 0.95) ([2]; listed as C): 303 microns | Median particle size ([2]; listed as C): 128 microns | D(v, 0.5) ([3]; listed as C): 148 microns | D(v, 0.85) ([3]; listed as C): 231 microns | D(v, 0.95) ([3]; listed as C): 277 microns | Mean particle size ([3]; listed as C): 51 microns | Median particle size ([3]; listed as C): 148 microns | mode particle size ([3]; listed as C): 193 microns

NC(=O)C[S+]([O-])C(c1ccccc1)c1ccccc1 (centres unmarked) [Batch D, 2-[(diphenylmethyl)sulfinyl]acetamide]
D(v, 0.5) ([1]; listed as D): 95 microns | D(v, 0.85) ([1]; listed as D): 217 microns | D(v, 0.95) ([1]; listed as D): 297 microns | Median ([1]; listed as D): 95 microns

NC(=O)C[S+]([O-])C(c1ccccc1)c1ccccc1 (centres unmarked) [“early” batches]
median value of modafinil particles [4]: 94-143 μ | size below which 95% of the particles lie [4]: 220-280 μ

NC(=O)C[S+]([O-])C(c1ccccc1)c1ccccc1 (centres unmarked) [“late” batches]
median value of modafinil particles [4]: 31-50 μ | size below which 95% of the particles lie [4]: 110-150 μ
